{"source": "patent US8192962B2", "about": "“Processes for detecting toxic substances” (Daikin Industries, Ltd., priority 2001, dated 2012)", "test_system": "Energy system protein genes", "experiment": "DNA chip mRNA expression in yeast, energy system protein genes (Table 4)", "assay_type": "cell-based, Saccharomyces cerevisiae S288C", "summary_of_the_method": "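Untreated cultures served as reference for log-phase S288C yeast given a growth-inhibiting, non-lethal toxicant dose for 2 h at 25° C. in YPD. Gene expression was measured on a whole-genome DNA chip from Cy3/Cy5-labeled cDNA.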"}
{"smiles": "[Cl][Hg][Cl]", "note": "[(3), HgCl2]", "values": [{"measurement": "The level of expressed mRNA in the presence of chemical substance/The level of expressed mRNA in the absence of chemical substance", "setting": "yeast gene YJR048W", "result": 2.2}, {"measurement": "The level of expressed mRNA in the presence of chemical substance/The level of expressed mRNA in the absence of chemical substance", "setting": "yeast gene YJR121W, cells incubated two hours with the chemical substance", "result": 3.3}, {"measurement": "The level of expressed mRNA in the presence of chemical substance/The level of expressed mRNA in the absence of chemical substance", "setting": "yeast gene YJR155W", "result": 1.4}, {"measurement": "The level of expressed mRNA in the presence of chemical substance/The level of expressed mRNA in the absence of chemical substance", "setting": "yeast gene YKL016C, cells incubated two hours with the chemical substance", "result": 0.7}, {"measurement": "The level of expressed mRNA in the presence of chemical substance/The level of expressed mRNA in the absence of chemical substance", "setting": "yeast gene YKL060C, cells incubated two hours with the chemical substance", "result": 2.5}, {"measurement": "The level of expressed mRNA in the presence of chemical substance/The level of expressed mRNA in the absence of chemical substance", "setting": "yeast gene YKL141W, cells incubated two hours with the chemical substance", "result": 4.7}, {"measurement": "The level of expressed mRNA in the presence of chemical substance/The level of expressed mRNA in the absence of chemical substance", "setting": "yeast gene YKL148C, cells incubated two hours with the chemical substance", "result": 3.7}, {"measurement": "The level of expressed mRNA in the presence of chemical substance/The level of expressed mRNA in the absence of chemical substance", "setting": "yeast gene YKR009C, cells incubated two hours with the chemical substance", "result": 1.5}, {"measurement": "The level of expressed mRNA in the presence of chemical substance/The level of expressed mRNA in the absence of chemical substance", "setting": "yeast gene YKR058W, cells incubated two hours with the chemical substance, 25° C., YPD medium", "result": 1.4}, {"measurement": "The level of expressed mRNA in the presence of chemical substance/The level of expressed mRNA in the absence of chemical substance", "setting": "yeast gene YKR097W", "result": 1.3}, {"measurement": "The level of expressed mRNA in the presence of chemical substance/The level of expressed mRNA in the absence of chemical substance", "setting": "yeast gene YLL041C, cells incubated two hours with the chemical substance", "result": 4.6}, {"measurement": "The level of expressed mRNA in the presence of chemical substance/The level of expressed mRNA in the absence of chemical substance", "setting": "yeast gene YLR038C, cells incubated two hours with the chemical substance", "result": 0.6}, {"measurement": "The level of expressed mRNA in the presence of chemical substance/The level of expressed mRNA in the absence of chemical substance", "setting": "yeast gene YLR044C, cells incubated two hours with the chemical substance", "result": 2.2}, {"measurement": "The level of expressed mRNA in the presence of chemical substance/The level of expressed mRNA in the absence of chemical substance", "setting": "yeast gene YLR134W, cells incubated two hours with the chemical substance", "result": 2.3}, {"measurement": "The level of expressed mRNA in the presence of chemical substance/The level of expressed mRNA in the absence of chemical substance", "setting": "yeast gene YLR258W, cells incubated two hours with the chemical substance", "result": 4.2}, {"measurement": "The level of expressed mRNA in the presence of chemical substance/The level of expressed mRNA in the absence of chemical substance", "setting": "yeast gene YLR284C, cells incubated two hours with the chemical substance", "result": 3.8}, {"measurement": "The level of expressed mRNA in the presence of chemical substance/The level of expressed mRNA in the absence of chemical substance", "setting": "yeast gene YLR295C, cells incubated two hours with the chemical substance, 25° C., YPD medium", "result": 1.1}, {"measurement": "The level of expressed mRNA in the presence of chemical substance/The level of expressed mRNA in the absence of chemical substance", "setting": "yeast gene YLR304C, cells incubated two hours with the chemical substance", "result": 5.0}, {"measurement": "The level of expressed mRNA in the presence of chemical substance/The level of expressed mRNA in the absence of chemical substance", "setting": "yeast gene YLR345W", "result": 1.4}, {"measurement": "The level of expressed mRNA in the presence of chemical substance/The level of expressed mRNA in the absence of chemical substance", "setting": "yeast gene YLR354C, cells incubated two hours with the chemical substance", "result": 2.3}, {"measurement": "The level of expressed mRNA in the presence of chemical substance/The level of expressed mRNA in the absence of chemical substance", "setting": "yeast gene YLR377C, cells incubated two hours with the chemical substance", "result": 1.8}, {"measurement": "The level of expressed mRNA in the presence of chemical substance/The level of expressed mRNA in the absence of chemical substance", "setting": "yeast gene YLR395C, cells incubated two hours with the chemical substance", "result": 2.2}, {"measurement": "The level of expressed mRNA in the presence of chemical substance/The level of expressed mRNA in the absence of chemical substance", "setting": "yeast gene YML087C", "result": 0.8}, {"measurement": "The level of expressed mRNA in the presence of chemical substance/The level of expressed mRNA in the absence of chemical substance", "setting": "yeast gene YML120C, cells incubated two hours with the chemical substance", "result": 1.9}, {"measurement": "The level of expressed mRNA in the presence of chemical substance/The level of expressed mRNA in the absence of chemical substance", "setting": "yeast gene YML129C, cells incubated two hours with the chemical substance", "result": 0.9}, {"measurement": "The level of expressed mRNA in the presence of chemical substance/The level of expressed mRNA in the absence of chemical substance", "setting": "yeast gene YMR073C, cells incubated two hours with the chemical substance", "result": 1.2}, {"measurement": "The level of expressed mRNA in the presence of chemical substance/The level of expressed mRNA in the absence of chemical substance", "setting": "yeast gene YMR118C", "result": 1.4}, {"measurement": "The level of expressed mRNA in the presence of chemical substance/The level of expressed mRNA in the absence of chemical substance", "setting": "yeast gene YMR205C, cells incubated two hours with the chemical substance", "result": 2.3}, {"measurement": "The level of expressed mRNA in the presence of chemical substance/The level of expressed mRNA in the absence of chemical substance", "setting": "yeast gene YMR261C, cells incubated two hours with the chemical substance", "result": 3.6}, {"measurement": "The level of expressed mRNA in the presence of chemical substance/The level of expressed mRNA in the absence of chemical substance", "setting": "yeast gene YMR267W, cells incubated two hours with the chemical substance, 25° C., YPD medium", "result": 0.7}, {"measurement": "The level of expressed mRNA in the presence of chemical substance/The level of expressed mRNA in the absence of chemical substance", "setting": "yeast gene YMR323W, cells incubated two hours with the chemical substance", "result": 2.9}, {"measurement": "The level of expressed mRNA in the presence of chemical substance/The level of expressed mRNA in the absence of chemical substance", "setting": "yeast gene YNL071W", "result": 1.7}, {"measurement": "The level of expressed mRNA in the presence of chemical substance/The level of expressed mRNA in the absence of chemical substance", "setting": "yeast gene YNL202W, cells incubated two hours with the chemical substance", "result": 1.2}, {"measurement": "The level of expressed mRNA in the presence of chemical substance/The level of expressed mRNA in the absence of chemical substance", "setting": "yeast gene YNL241C", "result": 4.3}, {"measurement": "The level of expressed mRNA in the presence of chemical substance/The level of expressed mRNA in the absence of chemical substance", "setting": "yeast gene YNL331C", "result": 1.3}, {"measurement": "The level of expressed mRNA in the presence of chemical substance/The level of expressed mRNA in the absence of chemical substance", "setting": "yeast gene YOL086C, cells incubated two hours with the chemical substance", "result": 2.2}, {"measurement": "The level of expressed mRNA in the presence of chemical substance/The level of expressed mRNA in the absence of chemical substance", "setting": "yeast gene YOL165C", "result": 1.8}, {"measurement": "The level of expressed mRNA in the presence of chemical substance/The level of expressed mRNA in the absence of chemical substance", "setting": "yeast gene YOR142W, cells incubated two hours with the chemical substance", "result": 3.4}, {"measurement": "The level of expressed mRNA in the presence of chemical substance/The level of expressed mRNA in the absence of chemical substance", "setting": "yeast gene YOR178C, cells incubated two hours with the chemical substance", "result": 4.8}, {"measurement": "The level of expressed mRNA in the presence of chemical substance/The level of expressed mRNA in the absence of chemical substance", "setting": "yeast gene YOR388C, cells incubated two hours with the chemical substance", "result": 1.3}, {"measurement": "The level of expressed mRNA in the presence of chemical substance/The level of expressed mRNA in the absence of chemical substance", "setting": "yeast gene YPL031C, cells incubated two hours with the chemical substance", "result": 1.4}, {"measurement": "The level of expressed mRNA in the presence of chemical substance/The level of expressed mRNA in the absence of chemical substance", "setting": "yeast gene YPL061W, cells incubated two hours with the chemical substance", "result": 5.0}, {"measurement": "The level of expressed mRNA in the presence of chemical substance/The level of expressed mRNA in the absence of chemical substance", "setting": "yeast gene YPL088W", "result": 0.6}, {"measurement": "The level of expressed mRNA in the presence of chemical substance/The level of expressed mRNA in the absence of chemical substance", "setting": "yeast gene YPL171C", "result": 3.5}, {"measurement": "The level of expressed mRNA in the presence of chemical substance/The level of expressed mRNA in the absence of chemical substance", "setting": "yeast gene YPL240C", "result": 2.4}, {"measurement": "The level of expressed mRNA in the presence of chemical substance/The level of expressed mRNA in the absence of chemical substance", "setting": "yeast gene YPL262W, cells incubated two hours with the chemical substance", "result": 3.8}, {"measurement": "The level of expressed mRNA in the presence of chemical substance/The level of expressed mRNA in the absence of chemical substance", "setting": "yeast gene YPL275W, cells incubated two hours with the chemical substance", "result": 1.3}, {"measurement": "The level of expressed mRNA in the presence of chemical substance/The level of expressed mRNA in the absence of chemical substance", "setting": "yeast gene YPL276W, cells incubated two hours with the chemical substance", "result": 1.6}, {"measurement": "The level of expressed mRNA in the presence of chemical substance/The level of expressed mRNA in the absence of chemical substance", "setting": "yeast gene YPR048W, cells incubated two hours with the chemical substance", "result": 0.9}, {"measurement": "The level of expressed mRNA in the presence of chemical substance/The level of expressed mRNA in the absence of chemical substance", "setting": "yeast gene YPR184W, cells incubated two hours with the chemical substance", "result": 5.7}]}
